Assay results from patent US12453733B2, “Composition for prevention or treatment of intractable epilepsy comprising mTOR inhibitor” (SoVarGen Co., Ltd., priority 2015, dated 2025).
“Also recorded” adds a separate entry of the source.

Columns and labels:
Assay type in all cases: cell-based, human
[1] = system: TSC2 mutant-expressing HEK293T cells; assay: Western blot of S6K phosphorylation in TSC2 mutant-expressing HEK293T cells after drug treatment; details: Example 11; FIGS. 25a and 25b
Procedure: (§1) Briefly, HEK293T cells (Thermo Scientific) were cultured in DMEM (Dulbecco's Modified Eagle's Medium) supplemented with 10% FBS at 37° C. and 5% CO2. The cells were transfected with empty flag-tagged vector, HA-tagged TSC1 wild-type, HA-tagged TSC2 wild-type, HA-tagged AKT3 wild-type, HA-tagged TSC1 mutant, HA-tagged TSC2 mutant and HA-tagged AKT3 mutant, respectively, using jetPRIME transfection reagent (Polyplus, France).
(§2) The cells were serum-starved with 0.1% FBS in DMEM for 24 hours after transfection and then incubated at 37° C. and 5% CO2 in PBS containing 1 mM MgCl2 and CaCl2 for 1 hour. The cells were lysed with PBS containing 1% Triton X-100 and Halt protease and phosphatase inhibitor cocktail (78440, Thermo Scientific, USA). Proteins were resolved by SDS-PAGE and transferred to PVDF membranes (Millipore, USA). The membranes were blocked with 3% BSA in TBS containing 0.1% Tween 20 (TBST). They were washed 4 times with TBST. The membranes were incubated overnight with primary antibodies including a 1/1000 dilution of anti-phospho-S6 ribosomal protein (5364, Cell Signaling Technology, USA), anti-56 ribosomal protein (2217, Cell Signaling Technology, USA), and anti-flag M2 (8164, Cell Signaling Technology, USA) in TBST at 4° C., respectively. After incubation, the membranes were washed 4 times with TBST. […]

[2] = system: mutant mTOR-expressing HEK293T cells; assay: Western blot of S6/S6K phosphorylation in mutant mTOR-expressing HEK293T cells after drug treatment; details: for phosphorylation of S6K in all the mutant mTOR-expressing cells: Y1450D, C1483R, R1709H, Y1977K, S2215F, L2427P, L2427Q
Procedure: HEK293T cells (Thermo Scientific) was cultured in DMEM (Dulbecco's Modified Eagle's Medium) containing 10% FBS at 37° C. and 5% CO2. The cells were transfected with empty flag-tagged vector, flag-tagged mTOR wild type, and flag-tagged mTOR mutants using jetPRIME transfection reagent (Polyplus, France). The cells were serum-starved with DMEM containing 0.1% FBS for 24 hours after transfection and then incubated at 37° C. and 5% CO2 in PBS containing 1 mM MgCl2 and CaCl2 for 1 hour. The cells were lysed with PBS containing 1% Triton X-100 and Halt protease and phosphatase inhibitor cocktail (78440, Thermo Scientific, USA).
Proteins were resolved by SDS-PAGE and transferred to PVDF membranes (Millipore, USA). The membranes were blocked with 3% BSA in TBS containing 0.1% Tween 20 (TBST). They were washed 4 times with TBST. The membranes were each incubated overnight at 4° C. with primary antibodies including a 1/1000 dilution of anti-phospho-S6 ribosomal protein (5364, Cell Signaling Technology, USA), anti-56 ribosomal protein (2217, Cell Signaling Technology, USA), and anti-flag M2 (8164, Cell Signaling Technology, USA) in TBST. After incubation, the membranes were washed 4 times with TBST. They were incubated with a 1/5000 dilution of HRP-linked anti-rabbit or anti-mouse secondary antibodies (7074, Cell Signaling Technology, USA) for 2 hours at room temperature. After washing with TBST, immunodetection was performed using ECL reaction reagents.
Transfection of mTOR mutants into HEK293T cells was carried out in the same manner as in Example 3-2. Then, the cells were serum-starved with DMEM containing 0.1% FBS for 24 hours and incubated at 37° C. and 5% CO2 in PBS containing 1 mM MgCl2 and CaCl2 for 1 hour, followed by treatment with rapamycin, everolimus, or compounds of Chemical Formulas 1 to 4 (Torinl, INK128, AZD8055, GSK2126458); Torin was purchased from TOCRIS, INK128, AZD8055, and GSK2126458 were provided from Selleckchem, and everolimus was purchased from LC laboratory. Subsequently, Western blotting was performed in the same manner as in Example 9.
Cells expressing various mTOR mutations were treated in the same manner as in Example 3-2 with rapamycin, everolimus, or the compounds of Chemical Formulas 1 to 4 and monitored for S6K phosphorylation. The mTOR mutations were R624H, Y1450D, C1483R, R1709H, Y1977K, S2215F, L2427P, and L2427Q. […]
Cells expressing various mTOR mutations were treated in the same manner as in Example 9-1 with rapamycin, everolimus, or the compounds of Chemical Formulas 1 to 4, and monitored for S6K phosphorylation. […]

[3] = system: TSC1 mutant-expressing HEK293T cells; assay: Western blot of S6K phosphorylation in TSC1 mutant-expressing HEK293T cells after drug treatment; details: Example 11; FIGS. 24a and 24b
Procedure: as §1, §2

## CO[C@H]1C[C@@H]2CC[C@@H](C)[C@@](O)(O2)C(=O)C(=O)N2CCCC[C@H]2C(=O)O[C@H]([C@H](C)C[C@@H]2CC[C@@H](OCCO)[C@H](OC)C2)CC(=O)[C@H](C)/C=C(\C)[C@@H](O)[C@@H](OC)C(=O)[C@H](C)C[C@H](C)/C=C/C=C/C=C/1C [everolimus]
[1]
  S6K phosphorylation in TSC2 mutant-expressing cells: inhibit
[2]; Example 3-4, HEK293T, Western blot, FIGS. 9a to 9c
  phosphorylation of S6K in mutant mTOR-expressing cells: inhibited; also recorded: reduce
[2]; Example 3-5, mutations R624H, FIGS. 13 and 14
  phosphorylation of S6K in all the mutant mTOR-expressing cells: inhibited
[2]; Example 10-1, FIG. 22, mTOR L2427P-expressing cells
  phosphorylation of S6 in mutant mTOR-expressing cells: inhibited
[2]; Example 10-2, variants R624H, FIGS. 23a and 23b
  phosphorylation of S6K in all the mutant mTOR-expressing cells: inhibited
[3]
  S6K phosphorylation in TSC1 mutant-expressing cells: inhibit
